Test results reported in patent US12564193B2, “Isoxazoline-substituted benzamide derivative, and preparation method therefor and use thereof” (SHANDONG UNITED PESTICIDE INDUSTRY CO., LTD., priority 2020, dated 2026).

tested on: Cnaphalocrocis medinalis; assay: Insecticidal activity, spray on pre-infested radish plants: Cnaphalocrocis medinalis; format: in vivo; details: 144 h, dose 0.1 ppm, spray, 6 days, read-out: fatality rate on Cnaphalocrocis medinalis
Protocol: (§1) For determination of insecticidal activity, the test method was as follows: a test solution with a desired concentration was prepared by dissolving a test compound sample in a suitable solvent (the kind of solvent was such as acetone, methanol, DMSO, etc., and was selected according to its dissolving ability for the sample). The test cell was composed of a small open container with 12-15 day old radish plants inside. The plants were pre-infested by placing 30-40 pests located on one leaf cut from the cultivated plant on one leaf of the test plant (leaf cutting method). As the leaves dehydrated, the pests moved on the test plants. After the pre-infesting, the soil of the test cells was covered with a layer of sand.
(§2) The test method was as follows: the test was repeated for three times, and after spraying the formulated test compound, each test unit was allowed to dry for 1 hour, and then a black mesh cover was placed at the top. The test units were kept in a growth chamber at 25° C. and 70% relative humidity for 6 days. The mortality (fatality rate) of the insects was then visually assessed for each test unit, and the fatality rate was calculated as follows: […]

SMILES	pest or weed control at 0.1 ppm [%]
Cc1cc(C2=NOC(c3cc(F)c(F)c(F)c3)(C(F)(F)F)C2)ccc1C(=O)NCc1ncccc1Cl (stereo not drawn) [Compound 14]	> 80

same assay, conditions: 144 h, dose 1 ppm, spray, 6 days, read-out: fatality rate on Cnaphalocrocis medinalis

SMILES	pest or weed control at 1 ppm [%]
Cc1cc(C2=NOC(c3cc(F)c(F)c(F)c3)(C(F)(F)F)C2)ccc1C(=O)NCc1ncccc1Cl (stereo not drawn) [Compound 14]	> 80

same assay, conditions: 144 h, dose 10 ppm, spray, 6 days, read-out: fatality rate on Cnaphalocrocis medinalis

SMILES	pest or weed control at 10 ppm [%]
Cc1cc(C2=NOC(c3cc(F)c(F)c(F)c3)(C(F)(F)F)C2)ccc1C(=O)NCc1ncccc1Cl (stereo not drawn) [Compound 14]	> 80

tested on: Chilo suppressalis; assay: Insecticidal activity, spray on pre-infested radish plants: Chilo suppressalis; format: in vivo; details: Chilo suppressalis, 144 h; dose 0.1 ppm, spray, 6 days; read-out: fatality rate on Chilo suppressalis
Protocol: as §1, §2

SMILES	pest or weed control at 0.1 ppm [%]
Cc1cc(C2=NOC(c3cc(F)c(F)c(F)c3)(C(F)(F)F)C2)ccc1C(=O)NCc1ncccc1Cl (stereo not drawn) [Compound 14]	> 80

same assay, conditions: Chilo suppressalis, 144 h; dose 1 ppm, spray, 6 days; read-out: fatality rate on Chilo suppressalis

SMILES	pest or weed control at 1 ppm [%]
Cc1cc(C2=NOC(c3cc(F)c(F)c(F)c3)(C(F)(F)F)C2)ccc1C(=O)NCc1ncccc1Cl (stereo not drawn) [Compound 14]	> 80

same assay, conditions: Chilo suppressalis, 144 h; dose 10 ppm, spray, 6 days; read-out: fatality rate on Chilo suppressalis

SMILES	pest or weed control at 10 ppm [%]
Cc1cc(C2=NOC(c3cc(F)c(F)c(F)c3)(C(F)(F)F)C2)ccc1C(=O)NCc1ncccc1Cl (stereo not drawn) [Compound 14]	> 80

tested on: Frankliniella occidentalis; assay: Insecticidal activity, spray on pre-infested radish plants: Frankliniella occidentalis; format: in vivo; details: Frankliniella occidentalis, 144 h; dose 1 ppm, spray, 6 days; read-out: fatality rate on Frankliniella occidentalis
Protocol: as §1
The test method was as follows: the test was repeated for three times, and after spraying the formulated test compound, each test unit was allowed to dry for 1 hour, and then a black mesh cover was placed at the top. The test units were kept in a growth chamber at 25° C. and 70% relative humidity for 6 days. The mortality (fatality rate) of the insects was then visually assessed for each test unit, and the fatality rate was calculated as follows:
[formula] (1) Test Results for the Control of Frankliniella occidentalis by Exemplary Example Compounds

SMILES	pest or weed control at 1 ppm [%]
Cc1cc(C2=NOC(c3cc(F)c(F)c(F)c3)(C(F)(F)F)C2)ccc1C(=O)NCc1ncccc1Cl (stereo not drawn) [Compound 14]	> 80

same assay, conditions: Frankliniella occidentalis, 144 h; dose 10 ppm, spray, 6 days; read-out: fatality rate on Frankliniella occidentalis

SMILES	pest or weed control at 10 ppm [%]
Cc1cc(C2=NOC(c3cc(F)c(F)c(F)c3)(C(F)(F)F)C2)ccc1C(=O)NCc1ncccc1Cl (stereo not drawn) [Compound 14]	> 80

same assay, conditions: Frankliniella occidentalis, 144 h; dose 25 ppm, spray, 6 days; read-out: fatality rate on Frankliniella occidentalis

SMILES	pest or weed control at 25 ppm [%]
Cc1cc(C2=NOC(c3cc(F)c(F)c(F)c3)(C(F)(F)F)C2)ccc1C(=O)NCc1ncccc1Cl (stereo not drawn) [Compound 14]	> 80

tested on: Spodoptera litura; assay: Insecticidal activity, spray on pre-infested radish plants: Spodoptera litura; format: in vivo; details: 144 h, dose 0.1 ppm, spray, 6 days, read-out: fatality rate on Spodoptera litura
Protocol: as §1, §2

SMILES	pest or weed control at 0.1 ppm [%]
Cc1cc(C2=NOC(c3cc(F)c(F)c(F)c3)(C(F)(F)F)C2)ccc1C(=O)NCc1ncccc1Cl (stereo not drawn) [Compound 14]	> 80

same assay, conditions: 144 h, dose 1 ppm, spray, 6 days, read-out: fatality rate on Spodoptera litura

SMILES	pest or weed control at 1 ppm [%]
Cc1cc(C2=NOC(c3cc(F)c(F)c(F)c3)(C(F)(F)F)C2)ccc1C(=O)NCc1ncccc1Cl (stereo not drawn) [Compound 14]	> 80

same assay, conditions: 144 h, dose 10 ppm, spray, 6 days, read-out: fatality rate on Spodoptera litura

SMILES	pest or weed control at 10 ppm [%]
Cc1cc(C2=NOC(c3cc(F)c(F)c(F)c3)(C(F)(F)F)C2)ccc1C(=O)NCc1ncccc1Cl (stereo not drawn) [Compound 14]	> 80

tested on: Plutella xylostella; assay: Insecticidal activity, spray on pre-infested radish plants: Plutella xylostella; format: in vivo; details: Plutella xylostella, 144 h; dose 0.1 ppm, spray, 6 days; read-out: fatality rate on Plutella xylostella
Protocol: as §1, §2

SMILES	pest or weed control at 0.1 ppm [%]
Cc1cc(C2=NOC(c3cc(F)c(F)c(F)c3)(C(F)(F)F)C2)ccc1C(=O)NCc1ncccc1Cl (stereo not drawn) [Compound 14]	> 80

same assay, conditions: Plutella xylostella, 144 h; dose 1 ppm, spray, 6 days; read-out: fatality rate on Plutella xylostella

SMILES	pest or weed control at 1 ppm [%]
Cc1cc(C2=NOC(c3cc(F)c(F)c(F)c3)(C(F)(F)F)C2)ccc1C(=O)NCc1ncccc1Cl (stereo not drawn) [Compound 14]	> 80

same assay, conditions: Plutella xylostella, 144 h; dose 10 ppm, spray, 6 days; read-out: fatality rate on Plutella xylostella

SMILES	pest or weed control at 10 ppm [%]
Cc1cc(C2=NOC(c3cc(F)c(F)c(F)c3)(C(F)(F)F)C2)ccc1C(=O)NCc1ncccc1Cl (stereo not drawn) [Compound 14]	> 80

tested on: Pieris rapae; assay: Insecticidal activity, spray on pre-infested radish plants: Pieris rapae; format: in vivo; details: 144 h, dose 0.1 ppm, spray, 6 days, read-out: fatality rate on Pieris rapae
Protocol: as §1, §2

SMILES	pest or weed control at 0.1 ppm [%]
Cc1cc(C2=NOC(c3cc(F)c(F)c(F)c3)(C(F)(F)F)C2)ccc1C(=O)NCc1ncccc1Cl (stereo not drawn) [Compound 14]	> 80

same assay, conditions: 144 h, dose 1 ppm, spray, 6 days, read-out: fatality rate on Pieris rapae

SMILES	pest or weed control at 1 ppm [%]
Cc1cc(C2=NOC(c3cc(F)c(F)c(F)c3)(C(F)(F)F)C2)ccc1C(=O)NCc1ncccc1Cl (stereo not drawn) [Compound 14]	> 80

same assay, conditions: 144 h, dose 10 ppm, spray, 6 days, read-out: fatality rate on Pieris rapae

SMILES	pest or weed control at 10 ppm [%]
Cc1cc(C2=NOC(c3cc(F)c(F)c(F)c3)(C(F)(F)F)C2)ccc1C(=O)NCc1ncccc1Cl (stereo not drawn) [Compound 14]	> 80

tested on: Mythimna separata; assay: Insecticidal activity, spray on pre-infested radish plants: Mythimna separata; format: in vivo; details: Mythimna separata, 144 h; dose 0.1 ppm, spray, 6 days; read-out: fatality rate on Mythimna separata
Protocol: as §1, §2

SMILES	pest or weed control at 0.1 ppm [%]
Cc1cc(C2=NOC(c3cc(F)c(F)c(F)c3)(C(F)(F)F)C2)ccc1C(=O)NCc1ncccc1Cl (stereo not drawn) [Compound 14]	> 80

same assay, conditions: Mythimna separata, 144 h; dose 1 ppm, spray, 6 days; read-out: fatality rate on Mythimna separata

SMILES	pest or weed control at 1 ppm [%]
Cc1cc(C2=NOC(c3cc(F)c(F)c(F)c3)(C(F)(F)F)C2)ccc1C(=O)NCc1ncccc1Cl (stereo not drawn) [Compound 14]	> 80

same assay, conditions: Mythimna separata, 144 h; dose 10 ppm, spray, 6 days; read-out: fatality rate on Mythimna separata

SMILES	pest or weed control at 10 ppm [%]
Cc1cc(C2=NOC(c3cc(F)c(F)c(F)c3)(C(F)(F)F)C2)ccc1C(=O)NCc1ncccc1Cl (stereo not drawn) [Compound 14]	> 80

tested on: Tetranychus cinnabarinus; assay: Acaricidal activity, slide immersion of female adult mites: Tetranychus cinnabarinus; format: in vivo; details: dose 1 ppm, immersion 5 seconds, checked after 24 hours, read-out: fatality rate on Tetranychus cinnabarinus
Protocol: The test method was as follows: a test solution with a desired concentration was prepared by dissolving a test compound sample in a suitable solvent (the kind of solvent was such as acetone, methanol, DMSO, etc., and was selected according to its dissolving ability for the sample). A double-sided adhesive tape was cut into 2-3 cm long pieces, the pieces were attached to one end of a microscope slide, paper pieces on the adhesive tape were removed using tweezers, female adult mites which were consistent in size, bright in body color and lively in action were selected using a zero-size brush pen, the backs of the female adult mites were adhered to the double-sided adhesive tape (note: the adhesion should not cover mite feet, mite whiskers and mouthparts), with 4 rows of mites adhered to each piece and 10 heads of the mites adhered to each row.
One end of the glass slide with the mites was immersed into a drug liquid, with slightly shaking for 5 seconds, and then the slide was taken out. The excess drug liquid around the mite body and is surroundings is quickly sucked off using absorbent paper. The slide was placed in the biochemical incubator described above, and the results were checked by using binoculars after 24 hours. The mites were slightly touched by using a brush pen, the mites with immobility in feet were considered to be dead, and the fatality rate was calculated. The fatality rate was calculated as follows: […]

SMILES	pest or weed control at 1 ppm [%]
Cc1cc(C2=NOC(c3cc(F)c(F)c(F)c3)(C(F)(F)F)C2)ccc1C(=O)NCc1ncccc1Cl (stereo not drawn) [Compound 14]	> 80

same assay, conditions: dose 10 ppm, immersion 5 seconds, checked after 24 hours, read-out: fatality rate on Tetranychus cinnabarinus

SMILES	pest or weed control at 10 ppm [%]
Cc1cc(C2=NOC(c3cc(F)c(F)c(F)c3)(C(F)(F)F)C2)ccc1C(=O)NCc1ncccc1Cl (stereo not drawn) [Compound 14]	> 80

same assay, conditions: dose 25 ppm, immersion 5 seconds, checked after 24 hours, read-out: fatality rate on Tetranychus cinnabarinus

SMILES	pest or weed control at 25 ppm [%]
Cc1cc(C2=NOC(c3cc(F)c(F)c(F)c3)(C(F)(F)F)C2)ccc1C(=O)NCc1ncccc1Cl (stereo not drawn) [Compound 14]	> 80
